Results reported in patent publication US20090117054A1, “[…] FOR THE TREATMENT OF PAIN” (University of Kentucky Research Foundation, priority 2005, published 2009).
Read-outs that look alike come from different tables or passages of the source.

What was measured:
[1] = cited from earlier work; for time to reach maximum plasma concentration: healthy volunteers
[2] = Pharmacokinetics of oxycodone in rabbits after intravenous and sublingual spray administration
[3] = male, New Zealand albino, rabbit, plasma, iv, 100 ug

SMILES: COc1ccc2c3c1O[C@H]1C(=O)CC[C@@]4(O)[C@@H](C2)N(C)CC[C@]314.Cl [oxycodone hydrochloride]
- bioavailability ([1]; buccal and intranasal administration): around 55%

SMILES: COc1ccc2c3c1O[C@H]1C(=O)CC[C@@]4(O)[C@@H](C2)N(C)CC[C@]314 [oxycodone, 4,5-epoxy-14-hydroxy-3-methoxy-1 7-methyl-5a-morphinan-6-one]
- time to reach maximum plasma concentration ([1]; immediate release oral tablets): 1.3 h
- time to reach maximum plasma concentration ([1]; intramuscular): 1.0 h
- time to reach maximum plasma concentration ([1]; intranasal): 0.42 h
- bioavailability ([1]; oral, nasal and rectal, adults, compared with parenteral administration): 40-60%
- Tmax ([2]; male, New Zealand albino, rabbit, plasma, 100 μg): 20 min
- bioavailability ([2]; male, New Zealand albino, rabbit, plasma, 100 μg, pH 4): 45.4 ± 20.1%
- bioavailability ([2]; male, New Zealand albino, rabbit, plasma, 100 μg, pH 9): 70.1 ± 17.9%
- AUC(0-inf) [2, 3]: 213 ng·h/mL
- Cmax [2, 3]: 185 ng/mL
- Tmax [2, 3]: 0 min
- half-life [2, 3]: 67.8 min
- terminal half-life after intravenous administration compared with sublingual administration ([2]; rabbits): close to the terminal half-life after sublingual administration
